According to US12415786B2, “Substituted 2-heteroarylaminobenzenes and the salts thereof and their use as herbicidal agents” (Bayer Aktiengesellschaft, priority 2019, dated 2025):

How the values were obtained:
Type in all cases: in vivo
[1] = tested on: Agrostis tenuis; test: Herbicidal early post-emergence action (96-well microtiter plates), AGSTE; conditions: 1900 g/ha, scored 9 to 12 days after treatment, 100% = plants have died, 0% = like untreated control plants
Outline: (§1)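 Activity was scored by eye 9 to 12 days after treatment (100% = plants dead, 0% = like untreated controls). Spraying used emulsion concentrates at 1900 g/ha in 2200 L/ha water, applied to cotyledon-stage seedlings raised 5 to 7 days in quartz sand in 96-well plates under controlled conditions.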

[2] = tested on: Poa annua; test: Herbicidal early post-emergence action (96-well microtiter plates), POAAN; conditions: 1900 g/ha, scored 9 to 12 days after treatment, 100% = plants have died, 0% = like untreated control plants
Outline: as §1

[3] = tested on: Echinochloa crus-galli; test: Herbicidal post-emergence action (greenhouse pots), ECHCG; conditions: 1280 g/ha, rated after about 3 weeks, 100% = plants have died, 0% = like untreated control plants
Outline: (§2)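 Post-emergence greenhouse test, sandy loam pots; one-leaf stage (2–3 wk after sowing); WP/EC as aqueous spray + 0.5% additive, 600 L/ha water, 1280 g/ha. Visual % activity ~3 wk post-treatment vs untreated (100% = plants dead).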

[4] = tested on: Lolium rigidum; test: Herbicidal post-emergence action (greenhouse pots), LOLRI; conditions: 1280 g/ha, rated after about 3 weeks, 100% = plants have died, 0% = like untreated control plants
Source text: (§3) In the examples and tables below, the following abbreviations are used: • Undesired Plants/Weeds: • ABUTH: Abutilon theophrasti • AGSTE: Agrostis tenuis • AMARE Amaranthus retroflexus • ECHCG: Echinochloa crus-galli • LOLRI: Lolium rigidum • MATIN: Matricaria inodora • POAAN: Poa annua • SETVI: Setaria viridis • STEME: Stellaria media A. Herbicidal Early Post-Emergence Action Seeds of mono- and dicotyledonous weed plants were placed in plastic pots in sandy loam soil (doubly sown with in each case one species of mono- or dicotyledonous weed plants per pot), covered with soil and cultivated in a greenhouse under controlled growth conditions. 2 to 3 weeks after sowing, the test plants were treated at the one-leaf stage. The compounds of the invention, formulated in the form of wettable powders (WP) or as emulsion concentrates (EC), were applied onto the green parts of the plants as aqueous suspension or emulsion with addition of 0.5% additive at a water application rate of 600 liters per hectare (converted). After the test plants had been kept in the greenhouse under optimum growth conditions for about 3 weeks, the activity of the preparations was rated visually in comparison to untreated controls. For example, 100% activity=the plants have died, 0% activity=like untreated control plants. Tables B1-B8 below show the effects of selected compounds of the general formula (I) according to Table 1 above on various harmful plants and an application rate corresponding to 1280 g/ha, which were obtained by the experimental procedure mentioned above.

[5] = tested on: Poa annua; test: Herbicidal post-emergence action (greenhouse pots), POAAN; conditions: 1280 g/ha, visual rating about 3 weeks after treatment vs untreated controls
Outline: as §2

[6] = tested on: Setaria viridis; test: Herbicidal post-emergence action (greenhouse pots), SETVI; conditions: 1280 g/ha, rated after about 3 weeks, 100% = plants have died, 0% = like untreated control plants
Outline: as §2

[7] = tested on: Abutilon theophrasti; test: Herbicidal post-emergence action (greenhouse pots), ABUTH; conditions: 1280 g/ha, visual rating about 3 weeks after treatment vs untreated controls
Outline: as §2

[8] = tested on: Amaranthus retroflexus; test: Herbicidal post-emergence action (greenhouse pots), AMARE; conditions: 1280 g/ha, visual rating about 3 weeks after treatment vs untreated controls
Outline: as §2

[9] = tested on: Stellaria media; test: Herbicidal post-emergence action (greenhouse pots), STEME; conditions: 1280 g/ha, visual rating about 3 weeks after treatment vs untreated controls
Outline: as §2

[10] = tested on: Lolium rigidum; test: Herbicidal pre-emergence action (greenhouse pots), LOLRI; conditions: 1280 g/ha, visual scoring after about 3 weeks vs untreated controls
Source text: (§4) In the examples and tables below, the following abbreviations are used: • Undesired Plants/Weeds: • ABUTH: Abutilon theophrasti • AGSTE: Agrostis tenuis • AMARE Amaranthus retroflexus • ECHCG: Echinochloa crus-galli • LOLRI: Lolium rigidum • MATIN: Matricaria inodora • POAAN: Poa annua • SETVI: Setaria viridis • STEME: Stellaria media A. Herbicidal Early Post-Emergence Action Seeds of mono- and dicotyledonous weed plants were placed in plastic pots in sandy loam soil (doubly sown with one species each of mono- or dicotyledonous weed plants per pot) and covered with soil. The compounds of the invention, formulated in the form of wettable powders (WP) or as emulsion concentrates (EC), were then applied onto the surface of the covering soil as aqueous suspension or emulsion with addition of 0.5% additive at a water application rate of 600 liters per hectare (converted). After the treatment, the pots were placed in a greenhouse and kept under good growth conditions for the test plants. After about 3 weeks, the effect of the preparations was scored visually in comparison with untreated controls as percentages. For example, 100% activity=the plants have died, 0% activity=like untreated control plants. Tables C1-C8 below show the effects of selected compounds of the general formula (I) according to Table 1 above on various harmful plants and an application rate corresponding to 1280 g/ha, which were obtained by the experimental procedure mentioned above.

[11] = tested on: Poa annua; test: Herbicidal pre-emergence action (greenhouse pots), POAAN; conditions: 1280 g/ha, visual scoring after about 3 weeks vs untreated controls
Outline: (§5)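 Compounds are applied at 1280 g/ha to the surface of soil covering freshly sown weed seeds. Spray is aqueous suspension or emulsion of WP or EC with 0.5% additive at 600 L/ha. Pots grow in the greenhouse, and visual % activity against untreated controls is rated after about 3 weeks.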

[12] = tested on: Setaria viridis; test: Herbicidal pre-emergence action (greenhouse pots), SETVI; conditions: 1280 g/ha, visual scoring after about 3 weeks vs untreated controls
Outline: as §5

[13] = tested on: Abutilon theophrasti; test: Herbicidal pre-emergence action (greenhouse pots), ABUTH; conditions: 1280 g/ha, visual scoring after about 3 weeks vs untreated controls
Source text: as §4

[14] = tested on: Amaranthus retroflexus; test: Herbicidal pre-emergence action (greenhouse pots), AMARE; conditions: 1280 g/ha, visual scoring after about 3 weeks vs untreated controls
Outline: as §5

[15] = tested on: Matricaria inodora; test: Herbicidal pre-emergence action (greenhouse pots), MATIN; conditions: 1280 g/ha, visual scoring after about 3 weeks vs untreated controls
Outline: as §5

[16] = tested on: Stellaria media; test: Herbicidal pre-emergence action (greenhouse pots), STEME; conditions: 1280 g/ha, visual scoring after about 3 weeks vs untreated controls
Outline: as §5

[17] = tested on: Echinochloa crus-galli; test: Herbicidal pre-emergence action (greenhouse pots), ECHCG; conditions: 1280 g/ha, visual scoring after about 3 weeks vs untreated controls
Outline: as §5

[18] = tested on: Matricaria inodora; test: Herbicidal post-emergence action (greenhouse pots), MATIN; conditions: 1280 g/ha, visual rating about 3 weeks after treatment vs untreated controls
Source text: as §3

| Compound | AGSTE (herbicidal activity, scored visually in comparison to untreated controls) [1] [%] | POAAN (herbicidal activity, scored visually in comparison to untreated controls) [2] [%] | ECHCG (herbicidal activity, rated visually in comparison to untreated controls) [3] [%] | LOLRI (herbicidal activity, rated visually in comparison to untreated controls) [4] [%] | herbicidal activity POAAN [5] [%] | SETVI (herbicidal activity, rated visually in comparison to untreated controls) [6] [%] | herbicidal activity ABUTH [7] [%] | herbicidal activity AMARE [8] [%] | herbicidal activity STEME [9] [%] | herbicidal activity LOLRI [10] [%] | herbicidal activity POAAN [11] [%] | herbicidal activity SETVI [12] [%] | herbicidal activity ABUTH [13] [%] | herbicidal activity AMARE [14] [%] | herbicidal activity MATIN [15] [%] | herbicidal activity STEME [16] [%] | herbicidal activity ECHCG [17] [%] | herbicidal activity MATIN [18] [%] |
| --- | --- | --- | --- | --- | --- | --- | --- | --- | --- | --- | --- | --- | --- | --- | --- | --- | --- | --- |
| N#Cc1cccc(Nc2ncc(Cl)cn2)c1Oc1ccc(F)cc1 [Example 1-286] | 100 | 100 | 100 | 90 | 100 | 100 | 100 | 100 | 100 | 90 | 100 | 100 | 90 | 100 | 100 | 100 |  |  |
| N#Cc1cccc(Nc2ncc(F)cn2)c1Oc1ccc(F)cc1 [Example 1-267] | 100 | 100 | 100 | 90 | 100 |  | 100 | 100 | 100 | 100 | 100 | 100 | 100 | 100 | 100 | 100 | 100 |  |
| N#Cc1cccc(Nc2ncc(F)cn2)c1Oc1ccc(F)nc1 [Example 3-53] | 100 | 100 | 100 | 90 | 100 | 90 | 100 | 100 | 100 | 100 | 100 | 100 | 100 | 100 | 100 | 100 | 100 | 90 |
| N#Cc1cccc(Nc2ncc(F)cn2)c1Oc1ccc(F)c(F)c1 [Example 1-272] | 100 | 100 | 100 | 100 | 100 | 100 | 100 | 100 | 100 | 100 | 100 | 100 | 100 | 100 | 100 | 100 | 100 | 100 |
| N#Cc1cccc(Nc2ncc(Cl)cn2)c1Oc1ccc(F)nc1 [Example 3-55] | 100 | 100 |  | 90 | 100 | 90 | 100 | 100 | 100 | 100 | 100 | 100 | 100 | 100 | 100 | 100 | 100 | 90 |
